Here are results for 18 compounds from PubChem BioAssay (NCI).

Some test systems named below: SK-MEL-5 melanoma; HS 578T breast; HT29 colon; TK-10 renal; RXF 393 renal; SF-268 CNS; HOP-92 NSCLC; HCT-15 colon; T-47D breast; NCI-H460 lung; OVCAR-4 ovarian; SNB-75 CNS; MALME-3M melanoma.
Common to all, as to test: NCI-60 cell line screen, 48 h

Molecules are shown by their SMILES.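 Grown in 96-well plates, cells were treated for 48 hours with each compound at five concentrations. Insufficient inhibition: endpoint recorded as highest concentration tested. GI50: concentration for 50% inhibition of growth. TGI: concentration producing complete growth inhibition.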

In the case of `O=C1/C(=C/c2ccc(Cl)cc2)N=C(c2ccccc2)N1C1Nc2cc3c(cc2S1)NC(N1C(=O)/C(=C/c2ccc(Cl)cc2)N=C1c1ccccc1)S3` (stereo not drawn), the TGI in the experiment on SK-MEL-5 melanoma, in the experiment with HS 578T breast, with HT29 colon, with TK-10 renal, with RXF 393 renal and with SF-268 CNS was above 100 µM in each case. The TGI in the experiment on HOP-92 NSCLC, with HCT-15 colon, in the experiment with T-47D breast, in the experiment on NCI-H460 lung and in the experiment with OVCAR-4 ovarian was above 100 µM throughout.

Turning to `Cc1cc(N(CCC#N)CCC#N)ccc1/C(N=Nc1ccccc1)=N\NC(=O)c1ccccc1`, the TGI in the experiment on SK-MEL-5 melanoma is above 100 µM; in the experiment with HS 578T breast, 75.8 µM; with HT29 colon it was 35.5 µM; in the experiment on TK-10 renal it was 41 µM; in the experiment on RXF 393 renal, above 100 µM; in the experiment on SF-268 CNS, above 100 µM. Also, the TGI in the experiment on HCT-15 colon is 48 µM; in the experiment with T-47D breast, 49 µM; in the experiment on NCI-H460 lung it was 91 µM; in the experiment on OVCAR-4 ovarian, above 100 µM; in the experiment with SNB-75 CNS it was above 100 µM; in the experiment on MALME-3M melanoma, above 100 µM.

With `O/N=C1/CCCCCC1NO` (stereo not drawn), the TGI with SK-MEL-5 melanoma, in the experiment on HS 578T breast, in the experiment on HT29 colon, in the experiment with TK-10 renal, in the experiment with RXF 393 renal and in the experiment with SF-268 CNS was above 100 µM in each case. Further, the TGI in the experiment on HOP-92 NSCLC, in the experiment with HCT-15 colon, in the experiment on T-47D breast, in the experiment with NCI-H460 lung, with OVCAR-4 ovarian and in the experiment with MALME-3M melanoma was above 100 µM each time.

In the case of `N#CC(C#N)=Cc1ccc(C=C2SC3=C(SCCS3)S2)s1`, the TGI in the experiment with SK-MEL-5 melanoma was above 100 µM; in the experiment with HS 578T breast, above 100 µM; in the experiment on HT29 colon, above 100 µM; in the experiment on TK-10 renal, 68.6 µM; in the experiment on SF-268 CNS it was above 100 µM; with HOP-92 NSCLC, above 100 µM. In addition, the TGI in the experiment with HCT-15 colon is above 100 µM; in the experiment with T-47D breast, above 100 µM; with NCI-H460 lung, above 100 µM; in the experiment on OVCAR-4 ovarian, above 100 µM; in the experiment on SNB-75 CNS, 94 µM; in the experiment with MALME-3M melanoma, above 100 µM.

As for `COP(=O)(OC)C(O)/C=C/c1ccco1` (stereo not drawn), the TGI with SK-MEL-5 melanoma, in the experiment on HS 578T breast, in the experiment with HT29 colon, in the experiment on RXF 393 renal, with SF-268 CNS and with HOP-92 NSCLC was above 100 µM in each case. Also, the TGI in the experiment with HCT-15 colon, with T-47D breast, in the experiment with OVCAR-4 ovarian and with MALME-3M melanoma was above 100 µM in each case.

For the compound `c1cc2cc(c1)CN1CCNCCN(CCNCC1)Cc1cccc(c1)CN1CCNCCN(CCNCC1)C2`, the TGI in the experiment with SK-MEL-5 melanoma, in the experiment on HS 578T breast, in the experiment on HT29 colon, in the experiment on TK-10 renal, with SF-268 CNS and in the experiment on HCT-15 colon was above 100 µM throughout. For the same compound, the TGI in the experiment on T-47D breast, with NCI-H460 lung, in the experiment on OVCAR-4 ovarian, with SNB-75 CNS and with MALME-3M melanoma was above 100 µM in each case.

With `CC(C)c1ccc2c(c1)C=C1OC(=O)[C@]3(C)CCC[C@@]2(C)C13` (stereo partly drawn), the TGI in the experiment on SK-MEL-5 melanoma, in the experiment on HS 578T breast, with HT29 colon, with TK-10 renal, in the experiment with RXF 393 renal and in the experiment with SF-268 CNS was above 100 µM each time. Also, the TGI with HCT-15 colon, in the experiment on T-47D breast, in the experiment with NCI-H460 lung, with OVCAR-4 ovarian and in the experiment with SNB-75 CNS was above 100 µM each time.

`CC1C2(C)OC(=N)C(C#N)(C(c3ccco3)O2)C1(C#N)C#N` (stereo not drawn): the TGI was 28.1 µM in the experiment on SK-MEL-5 melanoma; 80.8 µM with HS 578T breast; above 100 µM in the experiment on HT29 colon; above 100 µM with TK-10 renal; 51.4 µM with RXF 393 renal; above 100 µM in the experiment with SF-268 CNS. Besides, the TGI is 47.3 µM in the experiment on HOP-92 NSCLC; 25 µM with HCT-15 colon; 45.9 µM in the experiment with T-47D breast; 44.6 µM with NCI-H460 lung; above 100 µM with SNB-75 CNS; 88.7 µM with MALME-3M melanoma.

Take `COc1cc(CNC(=O)[C@H](Cc2ccc(O)cn2)NC(C)=O)cc(OC)c1`: the TGI in the experiment on SK-MEL-5 melanoma, in the experiment on HS 578T breast, with HT29 colon, in the experiment with TK-10 renal, in the experiment with RXF 393 renal and with SF-268 CNS was above 100 µM each time. Also, the TGI is 75.5 µM with HOP-92 NSCLC; above 100 µM with HCT-15 colon; above 100 µM in the experiment on T-47D breast; above 100 µM in the experiment on NCI-H460 lung; above 100 µM with OVCAR-4 ovarian; above 100 µM with MALME-3M melanoma.

Take `O=c1c2ccccc2c2c1c1c3ccccc3c(=O)c1c1c3ccccc3c(=O)c21`: the TGI in the experiment on SK-MEL-5 melanoma, in the experiment with HS 578T breast, in the experiment on HT29 colon, in the experiment on TK-10 renal, with SF-268 CNS and in the experiment with HCT-15 colon was above 100 µM throughout. Moreover, the TGI with T-47D breast, with NCI-H460 lung, in the experiment with SNB-75 CNS and with MALME-3M melanoma was above 100 µM each time.

Turning to `CC(=O)O[C@H]1[C@@H](OC2CCCC2(c2ccccc2)c2ccccc2)O[N+]([O-])=C[C@@]12COCc1cc3c(cc12)OCO3` (stereo partly drawn), the TGI in the experiment on SK-MEL-5 melanoma is 16.8 µM; in the experiment with HS 578T breast it was above 100 µM; in the experiment with HT29 colon, 9.11 µM; with TK-10 renal, above 24.7 µM; in the experiment on RXF 393 renal, 17.5 µM; with SF-268 CNS it was 14.4 µM. The TGI with HOP-92 NSCLC was 30.7 µM; in the experiment with HCT-15 colon, 67 µM; in the experiment with T-47D breast it was above 31.2 µM; in the experiment on NCI-H460 lung, 31.5 µM; in the experiment with OVCAR-4 ovarian it was 15.1 µM; with SNB-75 CNS, 34.6 µM.

`O=c1[nH]c(=O)n(C2OC(CO)C(O)C2O)cc1OCCc1ccccc1` (stereo not drawn): the TGI in the experiment with SK-MEL-5 melanoma, with HS 578T breast, in the experiment on HT29 colon, with TK-10 renal, with RXF 393 renal and in the experiment on SF-268 CNS was above 100 µM each time. In addition, the TGI in the experiment with HOP-92 NSCLC, in the experiment with HCT-15 colon, in the experiment with T-47D breast, with NCI-H460 lung, with OVCAR-4 ovarian and in the experiment on MALME-3M melanoma was above 100 µM throughout.

Consider `CC(=O)N1CC[N+](C)(CCCCN2c3ccccc3Sc3cc(N=[N+]=[N-])ccc32)CC1`, for which the TGI in the experiment with SK-MEL-5 melanoma, with HS 578T breast, with HT29 colon, in the experiment with TK-10 renal, in the experiment with RXF 393 renal and in the experiment on SF-268 CNS was above 100 µM in each case. Further, the TGI in the experiment on HCT-15 colon, in the experiment with T-47D breast, in the experiment with NCI-H460 lung, with OVCAR-4 ovarian, with SNB-75 CNS and in the experiment with MALME-3M melanoma was above 100 µM each time.

Consider `Fc1ccc(NCn2nc(COc3ccccc3Cl)n(/N=C/c3ccc(-c4ccc(Cl)cc4Cl)o3)c2=S)cc1Cl`, for which the TGI was 29.9 µM with SK-MEL-5 melanoma; above 100 µM with HS 578T breast; above 100 µM in the experiment on HT29 colon; above 100 µM with TK-10 renal; 56.6 µM in the experiment on RXF 393 renal; above 100 µM in the experiment with SF-268 CNS. Also, the TGI with HCT-15 colon, in the experiment on T-47D breast, with NCI-H460 lung and with OVCAR-4 ovarian was above 100 µM each time.

For `O=C(O)c1cncc(C(=O)O)c1`, the TGI in the experiment on SK-MEL-5 melanoma, in the experiment with HS 578T breast, with HT29 colon, in the experiment with TK-10 renal, in the experiment on RXF 393 renal and in the experiment on SF-268 CNS was above 100 µM in each case. Further, the TGI with HCT-15 colon, in the experiment on T-47D breast, in the experiment with NCI-H460 lung, with OVCAR-4 ovarian, with SNB-75 CNS and in the experiment on MALME-3M melanoma was above 100 µM throughout.

For `CC(=O)N1C(C(=O)NNc2ccccc2)CSC1c1ccccc1` (stereo not drawn), the TGI in the experiment with SK-MEL-5 melanoma, with HS 578T breast, in the experiment on HT29 colon, with TK-10 renal, in the experiment on SF-268 CNS and in the experiment with HOP-92 NSCLC was above 100 µM in each case. The TGI with HCT-15 colon, in the experiment with T-47D breast, with NCI-H460 lung, in the experiment with OVCAR-4 ovarian, with SNB-75 CNS and with MALME-3M melanoma was above 100 µM in each case.

As to `Cc1nc(N)c(N2CCN(Cc3ccccc3)CC2)c(=O)[nH]1`, the TGI in the experiment with HS 578T breast, in the experiment on HT29 colon, in the experiment on TK-10 renal, in the experiment with SF-268 CNS, in the experiment on HCT-15 colon and in the experiment on T-47D breast was above 100 µM each time. The TGI with NCI-H460 lung and with MALME-3M melanoma was above 100 µM throughout.

Take `COc1cc(/C=C/c2sc3ccccc3[n+]2C)ccc1N(C)C`: the GI50 in the experiment on SK-MEL-5 melanoma was 5.49 µM; in the experiment with HOP-92 NSCLC, 13 µM; with T-47D breast, 1360 nM; with NCI-H460 lung it was 13.4 µM; in the experiment with MALME-3M melanoma, 5.85 µM. Besides, the TGI was 18.5 µM in the experiment on SK-MEL-5 melanoma; above 100 µM in the experiment on HS 578T breast; 32.4 µM in the experiment on HT29 colon; 32 µM in the experiment on TK-10 renal; 33.5 µM with RXF 393 renal; 33.6 µM with SF-268 CNS. The TGI in the experiment on HOP-92 NSCLC was 34.9 µM; in the experiment on HCT-15 colon, above 100 µM; with T-47D breast it was 10.8 µM; in the experiment with NCI-H460 lung, 38 µM; in the experiment on OVCAR-4 ovarian it was 40.1 µM; with MALME-3M melanoma, 19.8 µM.
